The record followed here is ChEMBL document CHEMBL1955753, “SAR-study on a new class of imidazo[1,2-a]pyridine-based inhibitors of 5-lipoxygenase” (Bioorg Med Chem Lett, 2012).

The target in assay [1] is T1, Polyunsaturated fatty acid 5-lipoxygenase (Homo sapiens, UniProt P09917).
T1 sequence (P09917 whole entry): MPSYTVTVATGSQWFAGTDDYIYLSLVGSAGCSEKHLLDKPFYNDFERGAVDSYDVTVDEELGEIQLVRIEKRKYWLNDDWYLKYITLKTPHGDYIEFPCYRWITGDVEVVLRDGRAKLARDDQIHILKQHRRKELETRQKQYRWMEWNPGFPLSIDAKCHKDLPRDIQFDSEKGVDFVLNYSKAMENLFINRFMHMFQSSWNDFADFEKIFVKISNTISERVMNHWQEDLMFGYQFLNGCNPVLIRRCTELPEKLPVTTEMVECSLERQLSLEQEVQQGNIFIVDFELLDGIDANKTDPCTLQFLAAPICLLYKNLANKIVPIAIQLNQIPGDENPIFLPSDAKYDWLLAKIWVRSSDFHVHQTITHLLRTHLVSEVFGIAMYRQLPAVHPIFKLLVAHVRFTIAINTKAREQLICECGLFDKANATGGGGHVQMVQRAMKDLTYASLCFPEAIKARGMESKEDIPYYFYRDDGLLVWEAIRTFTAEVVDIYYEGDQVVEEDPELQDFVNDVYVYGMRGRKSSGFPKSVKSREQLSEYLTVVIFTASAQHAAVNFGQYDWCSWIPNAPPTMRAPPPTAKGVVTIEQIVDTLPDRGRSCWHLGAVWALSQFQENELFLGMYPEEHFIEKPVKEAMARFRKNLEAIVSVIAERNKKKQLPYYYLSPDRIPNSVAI
The experiment in a line: Inhibition of 5-lipoxygenase in human polymorphonuclear leukocytes assessed as reduction in A23187 and AA-stimulated 5-LO product formation preincubated for 15 mins prior stimulation measured after 10 mins by HPLC analysis. It counts as cell-based.

Assay [2] deals with T1, Polyunsaturated fatty acid 5-lipoxygenase. The experiment in a line: Inhibition of 5-lipoxygenase in S100 cell free fraction of human polymorphonuclear leukocytes assessed as reduction in 5-LO product formation preincubated for 15 mins measured after 10 mins by HPLC analysis. It counts as cell-based.

In general, IC50 refers to the midpoint of a concentration-inhibition curve.

For the compound `Cc1ccc2nc(-c3ccc([N+](=O)[O-])cc3)c(NC3CCCCC3)n2c1`, the concentration for half-maximal inhibition (IC50) in assay [1] was 1530 nM; in assay [2], > 30 µM.
On to `CN(C)c1ccc(-c2nc3ccc(Cl)cc3n2CC2CCCCC2)cc1`, for which the IC50 is 500 nM in assay [1] and > 10 µM in assay [2].
The matching figures for `CCOc1ccc2[nH]c(=O)c(-c3nc4ccc(C)cn4c3NC3CCCCC3)cc2c1`: 1800 nM and 21.6 µM.
In the case of `Cc1ccc(-c2nc3cc(C)ccn3c2NC2CCCC2)cc1`, the concentration for half-maximal inhibition (IC50) in assay [1] worked out at 900 nM.
Regarding `Cc1ccc2nc(-c3ccncc3)c(NC3CCCCC3)n2c1`, the half-inhibitory concentration (IC50) in assay [1] is 7200 nM; in assay [2] it was 7.7 µM.
For the compound `Clc1ccc2nc(-c3ccc(N4CCOCC4)cc3)n(CC3CCCCC3)c2c1`, the half-inhibitory concentration (IC50) in assay [1] amounted to 1200 nM; in assay [2], 5.8 µM.
Consider `Cc1ccc2nc(-c3ccc(N(C)C)cc3)c(NC3CCCCC3)n2c1`, for which the half-inhibitory concentration (IC50) in assay [1] came out at 600 nM.
